Assay results taken from patent publication US6670363B1, “Azole compounds as therapeutic agents for fungal infections” (Ranbaxy Laboratories Limited, priority 2000, dated 2003).
Converted amounts (≈) assume the structure as drawn.

Key:
Type in all cases: cell-based
[1] = test system: A. fumigatus s 1008; assay: In vitro MIC, NCCLS M38P broth method (RPMI 1640/MOPS pH7), Aspergillus fumigatus; conditions: A. fumigatus strain 1008
[2] = test system: Candida; assay: In vitro MIC, NCCLS M27A, Candida species; set-up: MIC, Candida albicans 1.549 / MIC, Candida albicans Y-01-19 / MIC, C. krusei 766-1 / MIC, C. krusei Q. C / MIC, Candida tropicalis ATCC / MIC, C. glabrata 90030: unit not given beside the values; MIC, Candida albicans A 26 / MIC, C. parapsilosis Q. C.: unit not given here; conditions: for MIC, C. glabrata 90030: C. glabrata strain 90030; for MIC, C. krusei 766-1: C. krusei strain 766-1; for MIC, C. krusei Q. C: C. krusei strain Q. C; for MIC, C. parapsilosis Q. C.: C. parapsilosis strain Q. C.; for MIC, Candida albicans 1.549: Candida albicans strain 1.549; for MIC, Candida albicans A 26: Candida albicans strain A 26; for MIC, Candida albicans Y-01-19: Candida albicans strain Y-01-19
[3] = test system: Cryptococcus neoformans; assay: In vitro MIC, NCCLS M27A, Cryptococcus neoformans; set-up: MIC, C. neoformans I: unit not given beside the values; MIC, C. neoformans M 106: unit not given here; conditions: for MIC, C. neoformans I: C. neoformans strain I; for MIC, C. neoformans M 106: C. neoformans strain M 106
[4] = test system: Histoplasma capsulatum

| Compound | MIC, A. fumigatus 1008 [1] | MIC, C. glabrata 90030 [2] | MIC, C. krusei 766-1 [2] | MIC, C. krusei Q. C [2] | MIC, C. parapsilosis Q. C. [2] | MIC, Candida albicans 1.549 [2] | MIC, Candida albicans A 26 [2] | MIC, Candida albicans Y-01-19 [2] | MIC, Candida tropicalis ATCC [2] | MIC, C. neoformans I [3] | MIC, C. neoformans M 106 [3] | MIC, H. capsulatum [4] [µg/mL] |
| --- | --- | --- | --- | --- | --- | --- | --- | --- | --- | --- | --- | --- |
| Cc1nn([C@H](C)[C@](O)(Cn2cncn2)c2ccc(F)cc2F)c(=O)n1-c1ccc(N2CCN(c3cc(Cl)cc(Cl)c3)CC2)cc1 [Compound 29, 2-{[1R2R/1S2S]-2-(2,4-Difluorophenyl)-2-hydroxy-1-methyl-3-(1H-1,2,4-triazol-1-yl)propyl}-4-{4-[4-(3,5-dichlorophenyl)-1-piperazinyl]phenyl}-3-(2H,4H)-5-methyl-1,2,4-triazolone] | 0.50 | 0.50 | 0.50 | 0.25 | <0.03 | 0.25 | <0.03 | 0.25 | <0.03 | <0.03 | <0.03 | 0.25 (≈ 0.381 µM) |
| C[C@@H](n1ncn(-c2ccc(N3CCN(c4ccc(F)c(Cl)c4)CC3)cc2)c1=O)[C@](O)(Cn1cncn1)c1ccc(F)cc1F [Compound 15, 2-{[1R2R/1S2S]-2-(2,4-Difluorophenyl)-2-hydroxy-1-methyl-3-(1H-1,2,4-triazol-1-yl)propyl}-4-{4-[4-(3-chloro-4-fluorophenyl)-1-piperazinyl]phenyl}-3-(2H,4H)-1,2,4-triazolone] | 0.50 | 0.50 | 0.50 | 0.25 | <0.03 | 1.00 | <0.03 | 0.25 | <0.03 | <0.03 | <0.03 | 0.12 (≈ 0.192 µM) |
| C[C@@H](n1ncn(-c2ccc(N3CCN(c4cccc(C(F)(F)F)c4)CC3)cc2)c1=O)[C@](O)(Cn1cncn1)c1ccc(F)cc1F [Compound 9, 2-{[1R2R/1S2S]-2-(2,4-Difluorophenyl)-2-hydroxy-1-methyl-3-(1H-1,2,4-triazol-1-yl)propyl}-4-{4-[4-(3-trifluoromethylphenyl)-1-piperazinyl]phenyl}-3-(2H,4H)-1,2,4-triazolone] | 0.50 | 0.25 | 0.50 | 0.12 | <0.03 | 0.25 | <0.03 | 0.25 | <0.03 | <0.03 | <0.03 | 0.06 (≈ 0.0937 µM) |
| C[C@@H](n1ncn(-c2ccc(N3CCN(c4ccc([N+](=O)[O-])cc4[N+](=O)[O-])CC3)cc2)c1=O)[C@](O)(Cn1cncn1)c1ccc(F)cc1F [Compound 3, 2-{[1R2R/1S2S]-2-(2,4-Difluorophenyl)-2-hydroxy-1-methyl-3-(1H-1,2,4-triazol-1-yl)propyl}-4-{4-[4-(2,4-dinitrophenyl)-1-piperazinyl]phenyl}-3-(2H,4H)-1,2,4-triazolone] | 0.25 | 0.25 | 1.00 | 0.50 | <0.03 | 0.12 | <0.03 | 0.50 | <0.03 | <0.03 | <0.03 | < 0.03 |
| Cc1ccc(N2CCN(c3ccc(-n4cnn([C@H](C)[C@](O)(Cn5cncn5)c5ccc(F)cc5F)c4=O)cc3)CC2)cc1Cl [Compound 17, 2-{[1R2R/1S2S]-2-(2,4-Difluorophenyl)-2-hydroxy-1-methyl-3-(1H-1,2,4-triazol-1-yl)propyl}-4-{4-[4-(3-chloro-4-methylphenyl)-1-piperazinyl]phenyl}-3-(2H,4H)-1,2,4-triazolone] | 0.25 | 0.50 | 0.50 | 0.50 | <0.03 | 0.25 | <0.03 | 0.25 | <0.03 | <0.03 | <0.03 | 0.25 (≈ 0.403 µM) |
| C[C@@H](n1ncn(-c2ccc(N3CCN(c4ccc(Cl)cc4)CC3)cc2)c1=O)[C@@](O)(Cn1cncn1)c1ccc(F)cc1F [Compound 2, 2-{[1R2S/1S2R]-2-(2,4-Difluorophenyl)-2-hydroxy-1-methyl-3-(1H-1,2,4-triazol-1-yl)propyl}-4-{4-[4-(4-chlorophenyl)-1-piperazinyl]phenyl}-3-(2H,4H)-1,2,4-triazolone] | >16 | 0.50 | 2.00 | 1.00 | <0.03 | 1.00 | <0.03 | 0.25 | <0.03 | <0.03 | <0.03 | < 0.03 |
| Cc1nn(CC(O)(Cn2cncn2)c2ccc(F)cc2F)c(=O)n1-c1ccc(N2CCN(c3ccc(F)cc3)CC2)cc1 (stereo not drawn) [Compound 36, 2-[2-(2,4-Difluorophenyl)-2-hydroxy-3-(1H-1,2,4-triazol-1-yl)propyl]-4-{4-[4-(4-fluorophenyl)-1-piperazinyl]phenyl}-3-(2H,4H)-5-methyl-1,2,4-triazolone] | >12.5 | 3.12 | 3.12 | 1.56 | <0.02 | 0.20 | <0.02 | 0.40 | <0.02 | 0.20 | 0.40 | < 0.02 |
| C[C@@H](n1ncn(-c2ccc(N3CCN(c4cccc(C(F)(F)F)c4)CC3)cc2)c1=O)[C@@](O)(Cn1cncn1)c1ccc(F)cc1F [Compound 10, 2-{[1R2S/1S2R]-2-(2,4-Difluorophenyl)-2-hydroxy-1-methyl-3-(1H-1,2,4-triazol-1-yl)propyl}-4-{4-[4-(3-trifluoromethylphenyl)-1-piperazinyl]phenyl}-3-(2H,4H)-1,2,4-triazolone] | >16 | 0.50 | >16 | 1.00 | <0.03 | 0.50 | <0.03 | 1.00 | <0.03 | 0.06 | <0.03 | 0.06 (≈ 0.0937 µM) |
| C[C@@H](n1ncn(-c2ccc(N3CCN(c4ccc(Cl)c(Cl)c4)CC3)cc2)c1=O)[C@@](O)(Cn1cncn1)c1ccc(F)cc1F [Compound 8, 2-{[1R2S/1S2R]-2-(2,4-Difluorophenyl)-2-hydroxy-1-methyl-3-(1H-1,2,4-triazol-1-yl)propyl}-4-{4-[4-(3,4-dichlorophenyl)-1-piperazinyl]phenyl}-3-(2H,4H)-1,2,4-triazolone] | >16 | >16 | >16 | >16 | 1.00 | >16 | <0.03 | >16 | >16 | 16.00 | 16.00 | 2 (≈ 3.12 µM) |
